Results from ChEMBL document CHEMBL4270599, “Synthesis of a 3'-C-ethynyl-β-d-ribofuranose purine nucleoside library: Discovery of C7-deazapurine analogs as potent antiproliferative nucleosides” (Eur J Med Chem, 2018).

Legend:
Format in all cases: functional
UACC-257 [1] = assay: Cytotoxicity against human UACC257 cells after 48 hrs by SRB assay; settings: UACC-257, 48 h; for GI50: read-out: GI50; for CC50: read-out: LC50 (the source's name); for TGI: read-out: TGI
UACC-62 = assay: Cytotoxicity against human UACC62 cells after 48 hrs by SRB assay; settings: UACC-62, 48 h; for CC50: read-out: LC50 (the source's name)
IGROV-1 = assay: Growth inhibition of human IGROV1 cells assessed as cell growth at 10^-7 M incubated for 48 hrs by sulforhodamine B assay relative to control; settings: IGROV-1, 48 h, read-out: Activity
DU-145 = assay: Growth inhibition of human DU145 cells assessed as cell growth at 10^-8 M incubated for 48 hrs by sulforhodamine B assay relative to control; settings: DU-145, 48 h, read-out: Activity
MOLT-4 = assay: Cytotoxicity against human MOLT4 cells after 48 hrs by SRB assay; settings: MOLT-4, 48 h; for GI50: read-out: GI50
OVCAR-8 = assay: Growth inhibition of human OVCAR8 cells assessed as cell growth at 10^-6 M incubated for 48 hrs by sulforhodamine B assay relative to control; settings: OVCAR-8, 48 h, read-out: Activity
NCI-H23 = assay: Growth inhibition of human NCI-H23 cells assessed as cell growth at 10^-8 M incubated for 48 hrs by sulforhodamine B assay relative to control; settings: NCI-H23, 48 h, read-out: Activity
MDA-MB-468 = assay: Growth inhibition of human MDA-MB-468 cells assessed as cell growth at 10^-7 M incubated for 48 hrs by sulforhodamine B assay relative to control; settings: MDA-MB-468, 48 h, read-out: Activity
T47D [2] = assay: Growth inhibition of human T47D cells assessed as cell growth at 10^-8 M incubated for 48 hrs by sulforhodamine B assay relative to control; settings: read-out: Activity
MDA-MB-435 [3] = assay: Cytotoxicity against human MDA-MB-435 cells after 48 hrs by SRB assay; settings: MDA-MB-435, 48 h; for GI50: read-out: GI50; for CC50: read-out: LC50 (the source's name); for TGI: read-out: TGI
UACC-257 [4] = assay: Growth inhibition of human UACC257 cells assessed as cell growth at 10^-5 M incubated for 48 hrs by sulforhodamine B assay relative to control; settings: UACC-257, 48 h, read-out: Activity
MDA-MB-435 [5] = assay: Growth inhibition of human MDA-MB-435 cells assessed as cell growth at 10^-5 M incubated for 48 hrs by sulforhodamine B assay relative to control; settings: MDA-MB-435, 48 h, read-out: Activity
OVCAR-4 = assay: Growth inhibition of human OVCAR4 cells assessed as cell growth at 10^-6 M incubated for 48 hrs by sulforhodamine B assay relative to control; settings: OVCAR-4, 48 h, read-out: Activity
HL-60(TB) = assay: Growth inhibition of human HL-60(TB) cells assessed as cell growth at 10^-6 M incubated for 48 hrs by sulforhodamine B assay relative to control; settings: HL-60, 48 h, read-out: Activity
Hs-578T = assay: Growth inhibition of human Hs 578T cells assessed as cell growth at 10^-8 M incubated for 48 hrs by sulforhodamine B assay relative to control; settings: read-out: Activity
KM12 = assay: Cytotoxicity against human KM12 cells after 48 hrs by SRB assay; settings: KM12, 48 h; for GI50: read-out: GI50; for CC50: read-out: LC50 (the source's name)
NCI/ADR-RES = assay: Growth inhibition of human NCI/ADR-RES cells assessed as cell growth at 10^-6 M incubated for 48 hrs by sulforhodamine B assay relative to control; settings: read-out: Activity
BT-549 = assay: Growth inhibition of human BT549 cells assessed as cell growth at 10^-6 M incubated for 48 hrs by sulforhodamine B assay relative to control; settings: BT-549, 48 h, read-out: Activity
SK-OV-3 [6] = assay: Growth inhibition of human SKOV3 cells assessed as cell growth at 10^-4 M incubated for 48 hrs by sulforhodamine B assay relative to control; settings: SK-OV-3, 48 h, read-out: Activity
EKVX = assay: Growth inhibition of human EKVX cells assessed as cell growth at 10^-6 M incubated for 48 hrs by sulforhodamine B assay relative to control; settings: read-out: Activity
UACC-257 [7] = assay: Growth inhibition of human UACC257 cells assessed as cell growth at 10^-6 M incubated for 48 hrs by sulforhodamine B assay relative to control; settings: UACC-257, 48 h, read-out: Activity
HCT-116 [8] = assay: Growth inhibition of human HCT116 cells assessed as cell growth at 10^-7 M incubated for 48 hrs by sulforhodamine B assay relative to control; settings: HCT-116, 48 h, read-out: Activity
SK-OV-3 [9] = assay: Growth inhibition of human SKOV3 cells assessed as cell growth at 10^-7 M incubated for 48 hrs by sulforhodamine B assay relative to control; settings: SK-OV-3, 48 h, read-out: Activity
HCT-116 [10] = assay: Growth inhibition of human HCT116 cells assessed as cell growth at 10^-8 M incubated for 48 hrs by sulforhodamine B assay relative to control; settings: HCT-116, 48 h, read-out: Activity
SR = assay: Cytotoxicity against human SR cells after 48 hrs by SRB assay; settings: for GI50: read-out: GI50
U-251 = assay: Growth inhibition of human U251 cells assessed as cell growth at 10^-8 M incubated for 48 hrs by sulforhodamine B assay relative to control; settings: U-251, 48 h, read-out: Activity
MDA-MB-435 [11] = assay: Growth inhibition of human MDA-MB-435 cells assessed as cell growth at 10^-8 M incubated for 48 hrs by sulforhodamine B assay relative to control; settings: MDA-MB-435, 48 h, read-out: Activity
786-0 = assay: Growth inhibition of human 786-0 cells assessed as cell growth at 10^-8 M incubated for 48 hrs by sulforhodamine B assay relative to control; settings: 786-0, 48 h, read-out: Activity
RXF 393 = assay: Growth inhibition of human RXF393 cells assessed as cell growth at 10^-8 M incubated for 48 hrs by sulforhodamine B assay relative to control; settings: RXF 393, 48 h, read-out: Activity
T47D [12] = assay: Growth inhibition of human T47D cells assessed as cell growth at 10^-7 M incubated for 48 hrs by sulforhodamine B assay relative to control; settings: read-out: Activity
[13] = read-out: pLC50 (the source's name) (converted)
[14] = read-out: LC50 (the source's name)

`C#C[C@@]1(O)[C@@H](CO)O[C@@H](n2cc(I)c3c(N)ncnc32)[C@@H]1O` gave a GI50 (UACC-257 [1]) of 2.18 to 2.5 µM, a CC50 (UACC-257 [1]) greater than 100 µM and a TGI (UACC-257 [1]) of 18.6 to 41.5 µM. For the same molecule, the GI50 (UACC-62; read-out: GI50) was 0.573 to 0.659 µM, the CC50 (UACC-62) was 6.63 to 24.5 µM and the TGI (UACC-62; read-out: TGI) was 2.38 to 3.23 µM. It also gave a growth at 0.1 µM (IGROV-1) of 5 to 13%, a growth at 0.01 µM (DU-145) of 91 to 94% and a GI50 (MOLT-4) of 0.0489 to 0.108 µM. The TGI (MOLT-4; read-out: TGI) was 0.831 µM, the CC50 (MOLT-4; [13]) was greater than 100 µM and the TGI (MOLT-4; read-out: pTGI (converted)) was 0.832 µM. The growth at 1 µM (OVCAR-8) was 3 to 5%, the growth at 0.01 µM (NCI-H23) was 87 to 91% and the growth at 0.1 µM (MDA-MB-468) was 65 to 68%. For the same molecule, the growth at 0.01 µM (T47D [2]) was 13 to 44%, the GI50 (MDA-MB-435 [3]) was 0.32 to 0.699 µM and the CC50 (MDA-MB-435 [3]) was greater than 100 µM. For the same molecule, the TGI (MDA-MB-435 [3]) was 11.7 to 14 µM, the growth at 10 µM (UACC-257 [4]) was 6 to 7% and the growth at 10 µM (MDA-MB-435 [5]) was 3 to 4%. For the same molecule, the growth at 1 µM (OVCAR-4) was 38 to 53%, the growth at 1 µM (HL-60(TB)) was -38% and the growth at 0.01 µM (Hs-578T) was 78 to 87%. For the same molecule, the GI50 (KM12) was 0.0928 to 0.0998 µM, the CC50 (KM12) was greater than 100 µM and the TGI (KM12; read-out: TGI) was greater than 100 µM. For the same molecule, the TGI (KM12; read-out: pTGI (converted)) was greater than 100 µM, the growth at 1 µM (NCI/ADR-RES) was 4 to 7% and the growth at 1 µM (BT-549) was 17 to 32%. For the same molecule, the growth at 100 µM (SK-OV-3 [6]) was -9%, the growth at 1 µM (EKVX) was 33 to 38% and the growth at 1 µM (UACC-257 [7]) was 72 to 79%. The growth at 0.1 µM (HCT-116 [8]) was 22 to 34%, the growth at 0.1 µM (SK-OV-3 [9]) was 26 to 40% and the growth at 0.01 µM (HCT-116 [10]) was 83 to 95%. It also gave a GI50 (SR) of 0.182 to 0.378 µM, a CC50 (SR; [14]) greater than 100 µM and a TGI (SR; read-out: TGI) of 8.15 to 100 µM. The growth at 0.01 µM (U-251) was 94 to 99%, the growth at 0.01 µM (MDA-MB-435 [11]) was 83 to 93% and the growth at 0.01 µM (786-0) was 87 to 98%. For the same molecule, the growth at 0.01 µM (RXF 393) was 94 to 102%.
For `C#C[C@@]1(O)[C@@H](CO)O[C@@H](n2cc(Cl)c3c(N)ncnc32)[C@@H]1O`, the GI50 (UACC-257 [1]) was 0.27 to 0.446 µM, the CC50 (UACC-257 [1]) was greater than 100 µM and the TGI (UACC-257 [1]) was 63.8 to 100 µM. For the same molecule, the CC50 (UACC-62) was greater than 100 µM, the TGI (UACC-62; read-out: TGI) was 0.383 µM and the GI50 (UACC-62; read-out: pGI50 (converted)) was 0.17 µM. It also gave a TGI (UACC-62; read-out: pTGI (converted)) of 0.38 µM, a growth at 0.1 µM (IGROV-1) of 57 to 65% and a growth at 0.01 µM (DU-145) of 96 to 100%. For the same molecule, the GI50 (MOLT-4) was 0.161 to 0.181 µM, the CC50 (MOLT-4; [14]) was greater than 100 µM and the TGI (MOLT-4; read-out: TGI) was 6.97 to 100 µM. For the same molecule, the growth at 0.01 µM (NCI-H23) was 88 to 89%, the growth at 0.1 µM (MDA-MB-468) was 82 to 89% and the growth at 0.01 µM (T47D [2]) was 71 to 84%. It also gave a GI50 (MDA-MB-435 [3]) of 0.132 to 0.208 µM, a CC50 (MDA-MB-435 [3]) of 4.67 to 100 µM and a TGI (MDA-MB-435 [3]) of 0.52 to 10.2 µM. It also gave a growth at 10 µM (UACC-257 [4]) of 34 to 42%, a growth at 10 µM (MDA-MB-435 [5]) of -65% and a growth at 0.1 µM (T47D [12]) of 31 to 50%. It also gave a growth at 1 µM (OVCAR-4) of 5 to 13%, a growth at 0.01 µM (Hs-578T) of 95 to 96% and a GI50 (KM12) of 0.126 to 0.161 µM. For the same molecule, the CC50 (KM12) was greater than 100 µM, the TGI (KM12; read-out: TGI) was greater than 100 µM and the TGI (KM12; read-out: pTGI (converted)) was greater than 100 µM. The growth at 1 µM (EKVX) was 10%, the growth at 1 µM (UACC-257 [7]) was 12 to 29% and the growth at 0.1 µM (HCT-116 [8]) was 4 to 5%. It also gave a growth at 0.1 µM (SK-OV-3 [9]) of 56 to 72%, a growth at 0.01 µM (HCT-116 [10]) of 67 to 73% and a GI50 (SR) of 0.0611 to 0.0873 µM. The TGI (SR; read-out: TGI) was greater than 100 µM, the CC50 (SR; [13]) was greater than 100 µM and the TGI (SR; read-out: pTGI) was greater than 100 µM. For the same molecule, the growth at 0.01 µM (U-251) was 47 to 66%, the growth at 0.01 µM (MDA-MB-435 [11]) was 88 to 89% and the growth at 0.01 µM (786-0) was 80 to 82%. The growth at 0.01 µM (RXF 393) was 101 to 108%.
